The molecules below were run against T1, Type-1 angiotensin II receptor (Homo sapiens, UniProt P30556) (assay: Compound was tested in vitro for inhibitory activity against human Angiotensin II receptor in cultured preadipocytes).
T1 sequence (P30556 whole entry): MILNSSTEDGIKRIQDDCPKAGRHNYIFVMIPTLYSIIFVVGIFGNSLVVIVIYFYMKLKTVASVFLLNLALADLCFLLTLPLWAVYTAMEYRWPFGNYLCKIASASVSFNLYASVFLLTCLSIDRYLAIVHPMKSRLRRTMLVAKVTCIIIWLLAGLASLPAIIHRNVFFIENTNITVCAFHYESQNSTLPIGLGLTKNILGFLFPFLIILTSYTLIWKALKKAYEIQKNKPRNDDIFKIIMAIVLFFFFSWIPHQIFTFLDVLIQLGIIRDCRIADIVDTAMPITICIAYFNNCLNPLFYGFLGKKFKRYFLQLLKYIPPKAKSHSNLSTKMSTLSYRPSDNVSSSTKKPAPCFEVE
Assay type: cell-based
Work on `Cc1nc(C(=O)O)c2c(n1)N(Cc1ccc(-c3ccccc3-c3nnn[nH]3)cc1)C(=O)CC2` yielded an IC50 of 44 nM. Work on `Cc1nc(C(=O)O)nc2c1CCC(=O)N2Cc1ccc(-c2ccccc2-c2nnn[nH]2)cc1` yielded an IC50 of 23 nM. Work on `Cc1nc(C)c2c(n1)N(Cc1ccc(-c3ccccc3-c3nnn[nH]3)cc1)C(=O)CC2` [TASOSARTAN] yielded an IC50 of 38 nM. With `O=c1ccc2c(CO)nc(CO)nc2n1Cc1ccc(-c2ccccc2-c2nn[nH]n2)cc1` the IC50 was 44 nM.

Reference: ChEMBL document CHEMBL1135844, “Novel human metabolites of the angiotensin-II antagonist tasosartan and their pharmacological effects” (Bioorg Med Chem Lett, 2002)
